According to US11963969B2, “Method for prevention or treatment of amyotrophic lateral sclerosis by administering gastrodin” (BUDDHIST TZU CHI MEDICAL FOUNDATION, priority 2021, dated 2024):
“Also recorded” adds a separate entry of the source.

Experiments:
patients with ALS = conditions: cited from earlier work
[1] = test system: sALS iPSC-differentiated motor neurons; test: NF staining of motor neurons differentiated from sporadic ALS iPSCs; format: cell-based, human; conditions: after treatment with gastrodin
Description: (§1) The gastrodin was diluted with dimethyl sulfoxide (DMSO) to 10 mM, added to the motor neurons differentiated at Day 25, Day 35 and Day 45 at a dosage ratio of 1:1,000, and cultured for 72 hours (hrs) for various assays.
(§2) A 4-well culture slide with a glass cover placed thereon was coated with 1% Geltrex®, placed at 37° C. for at least 3 to 4 hrs, washed with phosphate buffered saline (PBS) once after removal of the Geltrex®, and soaked in a culture medium until use. The embryoid bodies were dissociated with enzymes or mechanical force into smaller pieces, seeded on the 4-well culture slide, and cultured for 3 days (optionally for a longer period). […]
(§3) Thereafter, the cells were labeled via nuclear staining by adding 200 μL of 4′,6-diamidino-2-phenylindole (DAPI) (1 μg/mL), reacting in dark for 5 to 15 min at room temperature, removing DAPI, washing with PBST twice for 5 min each, removing PBST, adding PBS to maintain the cell moisture, lifting the glass coverslip with a needle tip, reversing the glass coverslip to the side with 50% glycerol or a mounting gel, storing in dark at 4° C., observing with a fluorescence microscope or a confocal microscope and photographing, and subsequently quantifying the numbers of neurofilaments and nerve fiber beads using an OLYMPUS cellSens Dimension Desktop 2.3 software. […]

[2] = test system: B6SJL-Tg (SOD1*G93A) 1Gur/J transgenic mice; test: ALS model mice: motor abilities, BBB score and survival; format: in vivo
From the text: The mice began to develop limb onsets in 80 to 90 days after birth, gradually lose ability to walk, and muscle weakness and atrophy started spreading to the upper parts of body. Most of their voluntary muscles became paralyzed and death after 110 to 120 days due to gradual loss of chewing ability and respiratory failure. The pathological characteristics include symptoms of amyotrophic lateral sclerosis such as muscular dystrophy, synaptic loss of motor neurons, degeneration and death of motor neurons, dismantling of the neuromuscular junction, etc.
Sixty days after birth, the ALS model mice (B6SJL-Tg (SOD1*G93A) 1Gur/J) were administered with gastrodin cycles once every 30 days as a single cycle, and 5 intraperitoneal injection of gastrodin was administered (with one day interval between every two intraperitoneal injections) at the first 10 days. No injection was administered during the subsequent 20 days. A total of two cycles of dosing may be performed until 120 days after birth.
The Example tested whether gastrodin improved the ALS symptoms of transgenic mice.
In this Example, beginning at 60 days after birth, the mice were administered with gastrodin by intraperitoneal injection at a dose of 50 mg/kg or 200 mg/kg for 5 times (with one day interval) every 30 days, until the mice degenerated severely to the extent that the hind lambs lost motor ability completely and until sacrificed. In this Example, motor abilities were tested, and survival time was recorded in days.

[3] = test system: SOD1^D90A ALS motor neurons; test: NF staining of SOD1^D90A ALS iPSC-differentiated motor neurons; format: cell-based, human; conditions: for efficacy on increasing number of nerve fibers, gastrodin compared with riluzole / reduction of spherical nerve fiber beads, gastrodin compared with riluzole: comparison of gastrodin and riluzole
Description: as §1
A 4-well culture slide with a glass cover placed thereon was coated with 1% Geltrex®, placed at 37° C. for at least 3 to 4 hrs, washed with phosphate buffered saline (PBS) once after removal of the Geltrex®, and soaked in a culture medium until use. The embryoid bodies were dissociated with enzymes or mechanical force into smaller pieces, seeded on the 4-well culture slide, and cultured for 3 days (optionally for a longer period). After the cells adhered and extended outwards to present rosettes with a neural tube-like or a neuronal morphology, the immunofluorescent staining was then performed.
For the immunofluorescent staining, the medium was firstly removed, and then the cells were washed with PBS at room temperature twice. Next, 200 μL of 4% paraformaldehyde was added to the cells, and the mixture was reacted at room temperature for 5 to 15 min to fix the cells. The cells were washed with PBS for 3 times for 5 min each, and 200 μL of 99% methanol or 0.3% Triton® was added. The mixture was incubated for 5 to 15 min at 4° C., and the liquid was removed after permeabilization. The methanol, if used for fixation, was volatilized out. Then, the mixture was washed with PBS for 3 times (each for 5 min), and 200 μL of 5% horse serum was added at room temperature for at least 1 hr for blocking. […] The primary antibody was removed after conjugation for 16 hrs, followed by washing with PBS and Tween® 20 (abbreviated as PBST hereinafter) for 3 times for 5 min each, and a secondary antibody (prepared in PBS at a concentration of 1:500) was added. The secondary antibody was kept in dark for 1 hour at room temperature. After removal of the secondary antibody, the mixture was washed 3 times with PBST for 5 min each.
Thereafter, the cells were labeled via nuclear staining by adding 200 μL of 4′,6-diamidino-2-phenylindole (DAPI) (1 μg/mL), reacting in dark for 5 to 15 min at room temperature, removing DAPI, washing with PBST twice for 5 min each, removing PBST, adding PBS to maintain the cell moisture, lifting the glass coverslip with a needle tip, reversing the glass coverslip to the side with 50% glycerol or a mounting gel, storing in dark at 4° C., observing with a fluorescence microscope or a confocal microscope and photographing, and subsequently quantifying the numbers of neurofilaments and nerve fiber beads using an OLYMPUS cellSens Dimension Desktop 2.3 software.
In this Example, SOD1^D90A ALS iPSCs-differentiated motor neurons were used for comparing the efficacies of gastrodin and riluzole on improvement of ALS symptoms.

[4] = test system: SOD1^G85R ALS motor neurons; test: NF staining of SOD1^G85R ALS iPSC-differentiated motor neurons; format: cell-based, human; conditions: 10 μM gastrodin, 72 hrs, vs untreated
Description: as §1, §2, §3

ALS motor neurons = test: ALS motor neurons, summary of axon and neurofilament findings; format: cell-based, human; conditions: 72 hrs after addition of gastrodin
Description: as §1

SOD1^D90A motor neurons = test: Calcium ion image analysis after KCl and glutamate stimulation; format: cell-based, human
Description: as §1
Cells were seeded on a Geltrex®-coated round glass slide having a diameter of 10 mm, and cultured in a neurobasal medium supplemented with RevitaCell® and compound E for 3 days. 1 μM calcium fluorescent probe Fluo-4 solution was prepared in a physiological buffer containing […], 5 mM KCl, 2 mM CaCl2, 2 mM MgCl2, 10 mM glucose and 10 mM HEPES, and the glass slide on which the cells were seeded was transferred into the 1 μM Fluo-4 solution and cultured at 37° C. for 4 min. The glass slide was transferred into a physiological buffer and cultured at 37° C. for 20 min. The glass slide with cells seeded thereon was transferred into a calcium imaging chamber for imaging under perfusion.
Images were taken under perfusion with a physiological buffer for 30 seconds, then under perfusion with 60 mM KCl for 1 min, and then under perfusion with a physiological buffer for 5 min. Next, images were taken under perfusion with 1 mM glutamate for 1 min, and then under perfusion with a physiological buffer for 5 min. Images were captured with a microscope (Nikon ECLIPSE Ti2-E) and analyzed using NIS-Elements AR software. […]

[5] = intraperitoneal gastrodin from day 60, vs control
[6] = 10 μM gastrodin, 72 hrs, NF staining, vs untreated

CC1=NN(c2ccccc2)C(=O)C1 [Edaravone, edaravone]
degeneration rate of motor ability (patients with ALS): can alleviate

OCc1ccc(O[C@@H]2O[C@H](CO)[C@@H](O)[C@H](O)[C@H]2O)cc1 [gastrodin]
amount of nerve fibers [1]: increased
nerve fiber beads [1]: decreased
roller residence time ([2]; 50 mg/kg or 200 mg/kg intraperitoneal, 5 times every 30 days from day 60, vs control): obviously longer than that of the control; also recorded: increased
loss of motor ability ([2]; after injection of gastrodin): obviously delayed
mortality rate ([2]; after injection of gastrodin): reduced
symptoms at an earlier stage ([2]; after injection of gastrodin): delayed
suppression on loss of active ability, improvement ([2]; compared to the control group): about 20 days
BBB scores [2, 5]: retarded the decrease
extension of life / overall survival time [2, 5]: 10 days
gripping strength of the hind limbs [2, 5]: clearly increased
amount of nerve fibers [3, 6]: increased
spherical nerve fiber beads [3, 6]: significantly decreased
efficacy on increasing number of nerve fibers, gastrodin compared with riluzole [3]: comparable to riluzole
reduction of spherical nerve fiber beads, gastrodin compared with riluzole [3]: by an extent more than riluzole
amount of nerve fibers [4]: significantly increase
neural axons (ALS motor neurons): Increased
neurofilament accumulation (ALS motor neurons): reduced
response of ALS motor neurons to KCl (SOD1^D90A motor neurons; KCl stimulation): promoted
oversensitive response to glutamate (calcium ion flow) (SOD1^D90A motor neurons; treatment for 72 hrs, 1 mM glutamate stimulation): significantly decreased

Nc1nc2ccc(OC(F)(F)F)cc2s1 [riluzole, reference compound]
efficacy on increasing number of nerve fibers, gastrodin compared with riluzole [3]: comparable to riluzole
reduction of spherical nerve fiber beads, gastrodin compared with riluzole [3]: by an extent more than riluzole
